{"source": "patent US20260042731A1", "about": "“(2,4-DICHLOROPHENOXY)ACETIC ACID ANALOGS” (CORTEVA AGRISCIENCE LLC, priority 2022, published 2026)", "format_in_all_cases": "in vivo", "key": {"[1]": {"tested_on": "Abutilon theophrasti (ABUTH), velvetleaf", "assay": "Postemergence herbicide evaluation, growth of Abutilon theophrasti (ABUTH)", "conditions": "Abutilon theophrasti, post-emergence"}, "[2]": {"tested_on": "Chenopodium album (CHEAL), common lambsquarters", "assay": "Postemergence herbicide evaluation, growth of Chenopodium album (CHEAL)", "conditions": "Chenopodium album, post-emergence"}, "[3]": {"tested_on": "weeds ABUTH, AMATA, AMBEL, CHEAL, ERICA", "assay": "Postemergence herbicide evaluation, overall average % weed control (ABUTH, AMATA, AMBEL, CHEAL, ERICA)", "conditions": "post-emergence, 560 g ae/ha, read-out: Overall Ave % Weed Control"}, "[4]": {"tested_on": "Ambrosia artemisiifolia (AMBEL), common ragweed", "assay": "Postemergence herbicide evaluation, growth of Ambrosia artemisiifolia (AMBEL)", "conditions": "Ambrosia artemisiifolia, post-emergence"}, "[5]": {"tested_on": "glyphosate resistant Conyza canadensis (L.) (ERICA), horseweed", "assay": "Postemergence herbicide evaluation, growth of Conyza canadensis (ERICA)", "conditions": "Erigeron canadensis, post-emergence, 560 g ae/ha, read-out: Ave. ERICA, percent reduction in plant size relative to the untreated control"}, "[6]": {"tested_on": "Amaranthus rudis (AMATA), tall water hemp", "assay": "Postemergence herbicide evaluation, growth of Amaranthus rudis (AMATA)", "conditions": "Amaranthus tuberculatus, post-emergence"}, "[7]": {"tested_on": "weeds ABUTH, AMATA, AMBEL, CHEAL, ERICA", "assay": "Postemergence herbicide evaluation, overall average % weed control across ABUTH, AMATA, AMBEL, CHEAL and ERICA", "conditions": "post-emergence, read-out: Overall Ave % Weed Control"}}, "note": "Like-named read-outs stand apart in the source and are kept apart here.", "data": [{"smiles": "COc1ccc(/C=N/OC(=O)COc2ccc(Cl)cc2Cl)cc1", "note": "[Compound A31]", "values": [{"measurement": "pest or weed control at 560 g/ha", "setting": "[1]; 168 h, 560 g ae/ha, 7 DAA, read-out: AVE. ABUTH, percent reduction in plant size relative to the untreated control", "result": 40, "unit": "%"}, {"measurement": "pest or weed control at 560 g/ha", "setting": "[1]; 336 h, 560 g ae/ha, 14 DAA, read-out: AVE. ABUTH, percent reduction in plant size relative to the untreated control", "result": 57.5, "unit": "%"}, {"measurement": "pest or weed control at 560 g/ha", "setting": "[1]; 504 h, 560 g ae/ha, 21 DAA, read-out: AVE. ABUTH, percent reduction in plant size relative to the untreated control", "result": 70, "unit": "%"}, {"measurement": "pest or weed control at 560 g/ha", "setting": "[2]; 168 h, 560 g ae/ha, 7 DAA, read-out: Ave. CHEAL, percent reduction in plant size relative to the untreated control", "result": 82.5, "unit": "%"}, {"measurement": "pest or weed control at 560 g/ha", "setting": "[2]; 336 h, 560 g ae/ha, 14 DAA, read-out: Ave. CHEAL, percent reduction in plant size relative to the untreated control", "result": 97, "unit": "%"}, {"measurement": "pest or weed control at 560 g/ha", "setting": "[2]; 504 h, 560 g ae/ha, 21 DAA, read-out: Ave. CHEAL, percent reduction in plant size relative to the untreated control", "result": 96, "unit": "%"}, {"measurement": "pest or weed control at 560 g/ha", "setting": "[3]; 168 h, 7 DAA", "result": 68.5, "unit": "%"}, {"measurement": "pest or weed control at 560 g/ha", "setting": "[3]; 336 h, 14 DAA", "result": 83, "unit": "%"}, {"measurement": "pest or weed control at 560 g/ha", "setting": "[3]; 504 h, 21 DAA", "result": 86.4, "unit": "%"}, {"measurement": "pest or weed control at 560 g/ha", "setting": "[4]; 168 h, 560 g ae/ha, 7 DAA, read-out: AVE. AMBEL, percent reduction in plant size relative to the untreated control", "result": 62.5, "unit": "%"}, {"measurement": "pest or weed control at 560 g/ha", "setting": "[4]; 336 h, 560 g ae/ha, 14 DAA, read-out: AVE. AMBEL, percent reduction in plant size relative to the untreated control", "result": 75, "unit": "%"}, {"measurement": "pest or weed control at 560 g/ha", "setting": "[4]; 504 h, 560 g ae/ha, 21 DAA, read-out: AVE. AMBEL, percent reduction in plant size relative to the untreated control", "result": 100, "unit": "%"}, {"measurement": "pest or weed control at 560 g/ha", "setting": "[5]; 168 h, 7 DAA", "result": 82.5, "unit": "%"}, {"measurement": "pest or weed control at 560 g/ha", "setting": "[5]; 336 h, 14 DAA", "result": 89.5, "unit": "%"}, {"measurement": "pest or weed control at 560 g/ha", "setting": "[5]; 504 h, 21 DAA", "result": 98.5, "unit": "%"}, {"measurement": "pest or weed control at 560 g/ha", "setting": "[6]; 168 h, 560 g ae/ha, 7 DAA, read-out: Ave. AMATA, percent reduction in plant size relative to the untreated control", "result": 75, "unit": "%"}, {"measurement": "pest or weed control at 560 g/ha", "setting": "[6]; 336 h, 560 g ae/ha, 14 DAA, read-out: Ave. AMATA, percent reduction in plant size relative to the untreated control", "result": 96, "unit": "%"}, {"measurement": "pest or weed control at 560 g/ha", "setting": "[6]; 504 h, 560 g ae/ha, 21 DAA, read-out: Ave. AMATA, percent reduction in plant size relative to the untreated control", "result": 67.5, "unit": "%"}]}, {"smiles": "O=C(COc1ccc(Cl)cc1Cl)OCCOCCOCCOCCOC(=O)COc1ccc(Cl)cc1Cl", "note": "[Compound B14]", "values": [{"measurement": "pest or weed control at 280 g/ha", "setting": "[7]; 168 h", "result": 75, "unit": "%"}, {"measurement": "pest or weed control at 560 g/ha", "setting": "[7]; 168 h", "result": 82.5, "unit": "%"}, {"measurement": "pest or weed control at 280 g/ha", "setting": "[7]; 336 h", "result": 87.3, "unit": "%"}, {"measurement": "pest or weed control at 560 g/ha", "setting": "[7]; 336 h", "result": 94.2, "unit": "%"}, {"measurement": "pest or weed control at 280 g/ha", "setting": "[7]; 504 h", "result": 90.2, "unit": "%"}, {"measurement": "pest or weed control at 560 g/ha", "setting": "[7]; 504 h", "result": 97.6, "unit": "%"}, {"measurement": "pest or weed control at 280 g/ha", "setting": "[1]; 168 h, read-out: AVE. ABUTH", "result": 60, "unit": "%"}, {"measurement": "pest or weed control at 560 g/ha", "setting": "[1]; 168 h, read-out: AVE. ABUTH", "result": 70, "unit": "%"}, {"measurement": "pest or weed control at 280 g/ha", "setting": "[1]; 336 h, read-out: AVE. ABUTH", "result": 77.5, "unit": "%"}, {"measurement": "pest or weed control at 560 g/ha", "setting": "[1]; 336 h, read-out: AVE. ABUTH", "result": 87.5, "unit": "%"}, {"measurement": "pest or weed control at 280 g/ha", "setting": "[1]; 504 h, read-out: AVE. ABUTH", "result": 92, "unit": "%"}, {"measurement": "pest or weed control at 560 g/ha", "setting": "[1]; 504 h, read-out: AVE. ABUTH", "result": 97.5, "unit": "%"}, {"measurement": "pest or weed control at 280 g/ha", "setting": "[2]; 168 h, read-out: Ave. CHEAL", "result": 75, "unit": "%"}, {"measurement": "pest or weed control at 560 g/ha", "setting": "[2]; 168 h, read-out: Ave. CHEAL", "result": 77.5, "unit": "%"}, {"measurement": "pest or weed control at 280 g/ha", "setting": "[2]; 336 h, read-out: Ave. CHEAL", "result": 94, "unit": "%"}, {"measurement": "pest or weed control at 560 g/ha", "setting": "[2]; 336 h, read-out: Ave. CHEAL", "result": 98, "unit": "%"}, {"measurement": "pest or weed control at 280 g/ha", "setting": "[2]; 504 h, read-out: Ave. CHEAL", "result": 90, "unit": "%"}, {"measurement": "pest or weed control at 560 g/ha", "setting": "[2]; 504 h, read-out: Ave. CHEAL", "result": 99, "unit": "%"}, {"measurement": "pest or weed control at 280 g/ha", "setting": "[4]; 168 h, read-out: AVE. AMBEL", "result": 82.5, "unit": "%"}, {"measurement": "pest or weed control at 560 g/ha", "setting": "[4]; 168 h, read-out: AVE. AMBEL", "result": 87.5, "unit": "%"}, {"measurement": "pest or weed control at 280 g/ha", "setting": "[4]; 336 h, read-out: AVE. AMBEL", "result": 75, "unit": "%"}, {"measurement": "pest or weed control at 560 g/ha", "setting": "[4]; 336 h, read-out: AVE. AMBEL", "result": 89.5, "unit": "%"}, {"measurement": "pest or weed control at 280 g/ha", "setting": "[4]; 504 h, read-out: AVE. AMBEL", "result": 100, "unit": "%"}, {"measurement": "pest or weed control at 560 g/ha", "setting": "[4]; 504 h, read-out: AVE. AMBEL", "result": 100, "unit": "%"}, {"measurement": "pest or weed control at 280 g/ha", "setting": "[6]; 168 h, read-out: Ave. AMATA", "result": 72.5, "unit": "%"}, {"measurement": "pest or weed control at 560 g/ha", "setting": "[6]; 168 h, read-out: Ave. AMATA", "result": 90, "unit": "%"}, {"measurement": "pest or weed control at 280 g/ha", "setting": "[6]; 336 h, read-out: Ave. AMATA", "result": 90, "unit": "%"}, {"measurement": "pest or weed control at 560 g/ha", "setting": "[6]; 336 h, read-out: Ave. AMATA", "result": 96, "unit": "%"}, {"measurement": "pest or weed control at 280 g/ha", "setting": "[6]; 504 h, read-out: Ave. AMATA", "result": 70, "unit": "%"}, {"measurement": "pest or weed control at 560 g/ha", "setting": "[6]; 504 h, read-out: Ave. AMATA", "result": 92.5, "unit": "%"}]}]}
